Measurements as given in patent US10023557B2 (LifeSci Pharmaceuticals, Inc., priority 2015, dated 2018).

How the values were obtained:
human plasma kallikrein = human plasma kallikrein (Homo sapiens (Human), UniProt P03952); assay: In vitro enzyme inhibition of human plasma kallikrein (PFR-AMC cleavage); format: biochemical; conditions: Pro-Phe-Arg-AMC substrate, 37° C., read-out: hPK IC50
How it was run: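 Human plasma kallikrein and compound, diluted in 50 mM Tris-HCl pH 7.5, 150 mM NaCl, 0.01% Triton X-100, preincubated 5 min at 37 °C before PFR-AMC was added.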

[1] = target: cellular kallikrein activity (Homo sapiens (Human), UniProt P03952); assay: In vitro cellular assay (contact assay): kallikrein activity in ellagic acid-activated human plasma, Z-FR-2-AMC substrate; format: biochemical; conditions: human plasma activated with ellagic acid, 37° C.
cellular kallikrein activity, sequence (P03952 391-638): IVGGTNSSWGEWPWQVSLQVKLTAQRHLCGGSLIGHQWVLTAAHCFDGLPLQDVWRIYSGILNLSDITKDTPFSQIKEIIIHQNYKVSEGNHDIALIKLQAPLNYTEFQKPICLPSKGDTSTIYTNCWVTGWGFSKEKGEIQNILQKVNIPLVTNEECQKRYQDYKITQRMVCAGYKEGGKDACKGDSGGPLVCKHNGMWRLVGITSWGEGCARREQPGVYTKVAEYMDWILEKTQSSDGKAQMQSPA
cellular kallikrein activity, sequence (P03952 20-390 partner): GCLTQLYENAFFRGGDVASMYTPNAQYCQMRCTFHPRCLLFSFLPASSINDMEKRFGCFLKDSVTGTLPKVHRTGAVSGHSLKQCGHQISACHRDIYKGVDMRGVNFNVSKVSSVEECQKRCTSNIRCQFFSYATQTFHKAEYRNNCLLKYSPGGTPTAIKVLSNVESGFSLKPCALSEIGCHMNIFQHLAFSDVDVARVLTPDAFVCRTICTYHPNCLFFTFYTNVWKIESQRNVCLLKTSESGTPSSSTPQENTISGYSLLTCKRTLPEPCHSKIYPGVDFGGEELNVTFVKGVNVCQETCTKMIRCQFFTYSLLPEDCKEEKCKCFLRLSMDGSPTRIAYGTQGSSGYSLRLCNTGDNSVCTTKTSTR

human plasma kallikrein, sequence (P03952 391-638): as the sequence (P03952 391-638) above
human plasma kallikrein, sequence (P03952 20-390 partner): as the sequence (P03952 20-390 partner) above

Row | SMILES | IC50 (human plasma kallikrein) [nM] | EC50 [1] [nM]
1 | Cc1nc(N)ccc1CNC(=O)c1ccnc(Cc2ccc3ncc(CC(F)F)cc3c2)c1 [Example 279, N-((6-amino-2-methylpyridin-3-yl)methyl)-2-((3-(2,2-difluoroethyl)quinolin-6-yl)methyl)isonicotinamide] | < 100 | 100 to 1000
2 | CCc1cnc2ccc(Cc3cc(C(=O)NCc4ccc5c(N)nccc5c4)ccn3)cc2c1 [Example 283, N-((1-aminoisoquinolin-6-yl)methyl)-2-((3-ethylquinolin-6-yl)methyl)isonicotinamide] | < 100 | < 100
3 | CCc1cnc2ccc(Cc3cc(C(=O)NCc4c(C)cc(N)nc4C)ccn3)cc2c1 [Example 286, N-((6-amino-2,4-dimethylpyridin-3-yl)methyl)-2-((3-ethylquinolin-6-yl)methyl)isonicotinamide] | < 100 | < 100
4 | Cc1cnc2c(S(N)(=O)=O)cc(Cc3cc(C(=O)NCc4cc5c(Cl)c[nH]c5cc4F)ccn3)cc2c1 [Example 287, N-((3-chloro-6-fluoro-1H-indol-5-yl)methyl)-2-((3-methyl-8-sulfamoylquinolin-6-yl)methyl)isonicotinamide] | < 100 | < 100
5 | Cc1cnc2c(S(N)(=O)=O)cc(Cc3cc(C(=O)NCc4n[nH]c5ccc(Cl)cc45)ccn3)cc2c1 [Example 288, N-((5-chloro-1H-indazol-3-yl)methyl)-2-((3-methyl-8-sulfamoylquinolin-6-yl)methyl)isonicotinamide] | < 100 | 100 to 1000
6 | Cc1cnc2c(S(N)(=O)=O)cc(Cc3cc(C(=O)NCc4ccc5c(N)nccc5c4)ccn3)cc2c1 [Example 289, N-((1-aminoisoquinolin-6-yl)methyl)-2-((3-methyl-8-sulfamoylquinolin-6-yl)methyl)isonicotinamide] | < 100 | < 100
7 | Cc1cnc2c(S(N)(=O)=O)cc(Cc3cc(C(=O)NCc4ccc5[nH]cc(Cl)c5c4F)ccn3)cc2c1 [Example 290, N-((3-chloro-4-fluoro-1H-indol-5-yl)methyl)-2-((3-methyl-8-sulfamoylquinolin-6-yl)methyl)isonicotinamide] | < 100 | 100 to 1000
8 | Cc1cnc2c(S(N)(=O)=O)cc(Cc3cc(C(=O)NCc4cnc5[nH]cc(Cl)c5c4)ccn3)cc2c1 [Example 291, N-((3-chloro-1H-pyrrolo[2,3-b]pyridin-5-yl)methyl)-2-((3-methyl-8-sulfamoylquinolin-6-yl)methyl)isonicotinamide] | < 100 | < 100
